# Patent US9364480B2, “Pharmaceutical composition for preventing or treating cancer, containing enoblock as active ingredient” (GWANGJU INSTITUTE OF SCIENCE AND TECHNOLOGY, priority 2012, dated 2016)
# “Also recorded” adds a separate entry of the source.
# Key:
# [1] = system: HCT116 colon carcinoma cells; experiment: Screening for apoptosis inducers effective under hypoxia (MTT cytotoxicity, hypoxia vs normoxia); type: cell-based
# Procedure: FIG. 1. Discovery of compound AP-III-a4 (ENOblock). (a) Schematic of the screening system used to detect apoptosis inducers effective under hypoxia. HCT116 cancer cells were seeded in parallel 96-well culture plates. Hypoxia was induced in one plate using 150 μM cobalt chloride treatment. Triazine library compound at 5 μM concentration was added 4 h later, and cell death was determined 24 h after hypoxia induction. […] (b) Chemical structures of AP-III-a4 (ENOblock) and the control compounds, AP-IV-e3 and AP-I-f10. Chemical structures of GAPDS, which targets glyceraldehyde 3-phosphate dehydrogenase (GAPDH), and rosiglitazone, a well-known anti-diabetes drug, are also shown. […] Error=SD; *=P value<0.05 for increased cell death compared to normoxia. P value: hypox 10=1.23×10^−6; hypox 5=2.38×10^−6; hypox 2.5=1.16×10^−5; hypox 1.25=0.000334. (d) Representative phase contrast microscopic images of HCT116 colon cancer cells treated with ENOblock under normoxia or hypoxia.
# HCT116 colon carcinoma cells were seeded in 2 sets of 96 well plates at a density of 5×10^3 cells per well. ‘Low glucose’ DMEM (containing 5 mM glucose; Invitrogen, OR, USA) was used for screening, because glycolysis inhibitors, such as 2-Deoxy-D-glucose (2-DG), are effective by competing with glucose. 24 h later, the hypoxic condition was induced in one set of 96 well plates by treatment with 150 μM of 0.22 μm filtered CoCl2 and the culture media volume was reduced by 50% (to 100 μL/well), as previously described.^49 4 h later, test compounds from a tagged triazine library^5 were screened at a concentration of 5 μM in duplicate wells. Cytotoxicity was determined by MTT assay 24 h after adding drug. ‘Hits’ for further analysis were classified as compounds that 25% or higher cytotoxicity in the hypoxia condition compared to the normoxia condition (as measured by MTT assay absorbance). 50 μM 2-DG, an inhibitor of glycolysis that selectively kills cancer cells in hypoxic conditions^50, was used as a positive control.
# We developed a novel, dual screening system to identify molecules that preferentially kill cancer cells in a hypoxic environment (FIG. 1). A small molecule library of 384 triazines prepared on a solid support5 (5; FIG. 3) was screened. A “hit” molecule was defined as an inducer of at least 25% increased cancer cell toxicity in hypoxia compared to normoxia (as determined using the 3-(4,5-dimethylthiazol-2-yl)-2,5-diphenyltetrazolium bromide, a tetrazole (MTT) assay). Five from 384 triazines screened produced greater cancer cell toxicity under hypoxia.
# [2] = system: macrophages; experiment: Foam cell formation from macrophages treated with oleic acid; type: cell-based; details: 10 μM
# [3] = biological target: purified human enolase (Homo sapiens, UniProt P06733); experiment: Affinity matrix binding of purified enolase (Western blot)
# purified human enolase, sequence (P06733 whole entry): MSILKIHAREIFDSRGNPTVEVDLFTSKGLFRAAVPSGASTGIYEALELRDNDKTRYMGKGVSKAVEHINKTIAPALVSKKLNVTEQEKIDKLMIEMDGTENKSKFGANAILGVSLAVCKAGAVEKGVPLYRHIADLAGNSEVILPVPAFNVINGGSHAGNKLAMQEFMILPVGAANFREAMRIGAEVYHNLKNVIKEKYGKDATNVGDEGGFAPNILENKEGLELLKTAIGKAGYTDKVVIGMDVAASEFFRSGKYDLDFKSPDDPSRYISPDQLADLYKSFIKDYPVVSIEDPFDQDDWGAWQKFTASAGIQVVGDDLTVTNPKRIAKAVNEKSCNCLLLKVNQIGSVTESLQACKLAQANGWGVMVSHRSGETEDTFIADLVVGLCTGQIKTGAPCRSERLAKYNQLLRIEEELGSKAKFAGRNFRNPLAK
# Procedure: FIG. 4. […] (a) Affinity chromatography study for ENOblock in HCT116 cancer cells. […] (b) Sequence identification for the enolase monomer subunit. […] Mascot scores above 100 were deemed to be significant. […] Twenty micrograms of cell lysate from YD-10B oral cancer cells or Huh7 hepatocytes were used as positive controls. […] As a positive control, ENOblock affinity matrix was incubated with 200 μg of HCT 116 cell lysate; 50 μg cell lysate from HCT116 cancer cells was used as a positive control for the enolase antibody.
# Affinity chromatography was used to identify the cellular target for AP-III-a4. Target identification strategies for the triazine library used in this study are relatively straightforward, because the molecules contain a built-in linker moiety. This allows conjugation to an affinity matrix with reduced risk of compromising biological activity.
# [4] = system: HCT116-xenotransplanted zebrafish; experiment: Zebrafish tumor cell xenograft model; type: in vivo, zebrafish (Danio rerio)
# Source text: FIG. 9. Toxicological study of ENOblock and in vivo analysis of anticancer activity. (A) Toxicological analysis of ENOblock treatment using the zebrafish larvae system. […] (B) Microscopic assessment of […] post fertilization (dfp) zebrafish larvae exposed to increasing doses of ENOblock. […] Error=SD; *=P<0.05 compared to the DMSO treated group. […] DMSO treatment served as a control. Three representative embryos are shown from each experimental group, and distributed cancer cell foci are designated with blue arrows. […] Error=SD; *=P<0.05 compared to the DMSO-treated group.
# Zebrafish embryos were obtained using standard mating conditions^53 and staged for cell xenoplantation at 48 h post fertilization. After staining of cancer cells (described below), embryos were de-chorionized using micro-forceps and anesthetized with 0.0016% tricaine and positioned on their right side on a wet 1.0% agarose pad. Tumor cells were detached from culture dishes using 0.05% trypsin-EDTA and washed twice with PBS at room temperature. Cells were stained with 2 μg/ml DiI diluted in PBS and washed four times: once with FBS, twice with PBS and then once with 10% FBS diluted in PBS. Cells were kept on ice before injection. Cancer cells were counted by microscopy, suspended in 10% FBS and 100 cells were injected into the center of the yolk sac using an injector equipped with borosilicate glass capillaries (PV820 pneumatic picopump, World Precision Instruments). Injected embryos were transferred to a 96-well plate (one embryo/well) containing drug of interest diluted in […] E3 media (without methylene blue) and maintained at the pre-selected incubation temperature.
# [5] = system: pre-adipocytes undergoing adipogenesis; experiment: Adipogenesis lipid accumulation (Oil Red O staining); type: cell-based
# [6] = system: glucose 6-phosphatase (G6 Pase) expression in hepatocytes; experiment: G6 Pase expression in hepatocytes; type: cell-based; details: 10 μM, 24 h
# Source text: FIG. 10. […] Error=SD; *=P<0.05 compared to the no drug (DMSO-treated) group. […] Error=SD; *=P<0.05 for reduced PEPCK expression compared to the no drug (DMSO-treated) group.
# [7] = system: AKT expression in HCT116 cancer cells; experiment: AKT Western blot; type: cell-based; details: 24 h treatment
# Procedure: FIG. 7. […] (b) Microscopic images of crystal violet stained HCT116 cells invaded onto the transwell inserts (scale bar=100 μm). […] (d) Microscopic images of crystal violet stained HCT116 cells migrated onto the transwell inserts (scale bar=100 μm). […] Cells were treated with 10 nM taxol and 10 nM vincristine, with or without 10 μM ENOblock. Error=SD; *=P<0.05 between the groups indicated on the graph. […] For the AKT Western blot, cells were treated with ENOblock for 24 h; for the Bcl-Xl Western blot, cells were treated with ENOblock for 48 h.
# [8] = system: Huh7 hepatocytes; experiment: Glucose uptake with fluorescent glucose probe 2-NBDG, hepatocytes; type: cell-based; details: 10 μM, 24 h
smiles,measurement,setting,value
NCCOCCOCCNC(=O)Cc1ccc(Nc2nc(NCc3ccc(F)cc3)nc(NCC3CCCCC3)n2)cc1 [ENOblock],cell viability of cancer cells cultured under hypoxia,[1]; FIG. 1c-1d,reduced cell viability dose-dependently
same,hit classification in triazine library screen (25% or greater cell death under hypoxia compared to normoxia),"[1]; HCT116, 5 μM compound, 24 h, MTT",best performing hit molecule
same,cell death in hypoxic conditions compared to normoxia,"[1]; HCT116, hypoxia by 150 μM cobalt chloride, MTT, FIG. 1c",higher levels of HCT116 colon cancer cell death in hypoxic conditions (Hypox) compared to normoxia
same,trypan blue uptake (cell death),[1]; under hypoxia,increased trypan blue uptake under hypoxia
same,"foam cell formation (Oil Red O staining, microscopy)",[2],inhibited foam cell formation
same,foam cell formation (count of cells showing lipid accumulation),[2],inhibited foam cell formation
same,binding of purified enolase to compound affinity matrix,[3],purified human enolase binds to the ENOblock affinity matrix; also recorded: could bind to purified human enolase
same,competition by free compound for purified enolase binding to ENOblock affinity matrix,[3],inhibited purified enolase binding to the ENOblock affinity matrix
same,number of embryos showing cancer cell migration and metastasis (dissemination) from the yolk sac injection site,"[4]; 10 μM for 96 h, DMSO control",reduced the number of embryos showing migration and metastasis; also recorded: reduced cancer cell dissemination
same,quantification of xenotransplanted cancer cell microfoci,"[4]; 10 μM for 96 h, vs DMSO-treated group",significantly reduced cancer cell migration and metastasis
same,viability of xenotransplanted cancer cells,[4]; normoxia,without noticeably affecting cancer cell viability
same,"lipid accumulation during adipogenesis (Oil Red O, microscopy)",[5]; 10 μM,inhibited lipid accumulation
same,quantification of lipid accumulation during adipogenesis,[5]; ENOblock treatment with adipogenic cocktail,blocked lipid accumulation during adipogenesis
same,glucose 6-phosphatase (G6 Pase) expression,[6],did not affect expression of the enzymes
same,AKT expression,[7],decreased the expression of AKT and Bcl-Xl
same,glucose uptake (2-NBDG),[8],induced glucose uptake
